# Measured values reported in publication PMC5126104, “Identification of a Chemoreceptor in Pseudomonas aeruginosa That Specifically Mediates Chemotaxis Toward α-Ketoglutarate” (Frontiers in Microbiology, 2016).
# B1: McpK ligand binding domain (McpK-LBD) (domain or fragment, Pseudomonas aeruginosa PAO1, UniProt Q9HUB1 38-293, looked up)
# chain: RTLTHQTALSEQLAEVASLMEQTQQAEQGRLAFEAGSDPRQAEQVRQTLAGMLQRLQALRDSELDPAALAHQVEAIEAYRKAFDDLAAADQQRSAARGVLVGTAQQALDSFARLEELMDASLAQQAGDPQALQRSRAVADLHQQLLMVRYQVRGYVFERSDKAEQAAFAAFDALRQAATTLRGQLPGEADAALEQAMGSLQGYRGGIEQFRAGVIRTRQAQQAMQSSTQDMARAGRTLTEAGRQLRESTASRDRAS
# notes: No removal of the tag is described; In monomer-dimer equilibrium by AUC; also called PA5072-LBD; source: E. coli BL21 (DE3), pET28-McpK-LBD, purified (HisTrap column)
# Target: T1, McpK (PA5072) chemoreceptor ligand binding domain (Pseudomonas aeruginosa, UniProt Q9HUB1)
# T1 construct: McpK-LBD, Arg38–Ser293
# Test: not given
# Design: thermal shift assay with SYPRO Orange, Tm change of recombinant McpK-LBD
# Settings: binder
# Protocol: Thermal shift assays were performed using a BioRad MyIQ2 Real-Time PCR instrument. Ligands were prepared by dissolving Biolog Phenotype Microarray compounds in 50 μl of MilliQ water to obtain a final concentration of around 10–20 mM (as indicated by the manufacturer). Screening was performed with plates PM1, PM2A, PM3B, PM4A, and PM5. Each plate contains 95 compounds and a control (Supplementary Figure S1). Each 25 μl assay mixture contained 40 μM protein in 5 mM Tris, 5 mM Pipes, 5 mM Mes, pH8.0 and SYPRO orange (Life Technologies) at 5x concentration. Aliquots of 2.5 μl of the resuspended Biolog compounds were added to each well. Samples were heated from 23°C to 85°C at a scan rate of 1°C/min. The protein unfolding curves were monitored by detecting changes in SYPRO Orange fluorescence. Melting temperatures were determined using the first derivative values from the raw fluorescence data. […] Ligands tested included different bacterial carbon-, nitrogen-, phosphorous-, and sulfur sources as well as to nutrient supplements, which are listed in Supplementary Figure S1. A total of 13 compounds were identified that increased or decreased the Tm by at least 2°C (Supplementary Table S2), which is the generally accepted threshold for a relevant ligand-induced change in protein stability.
row,Molecule,Tm Shift (°C)
1,NCCCCC(=O)O [5-Aminovaleric acid],+3.9 °C
2,CC(=O)O [Acetate],-0.2 °C
3,CCCC(=O)O [Butyrate],+0.7 °C
4,NC(=O)OP(=O)(O)O [Carbamyl phosphate],+3.5 °C
5,O=C(O)CC(O)(CC(=O)O)C(=O)O [Citrate],+0.8 °C
6,O=C1O[C@@H]([C@H](O)CO)[C@H](O)[C@H]1O [D-Galactonic acid-γ-lactone],+2 °C
7,O=C(O)[C@H]1OC(O)[C@H](O)[C@@H](O)[C@H]1O (stereo partly drawn) [D-Galacturonic acid],+2.3 °C
8,N[C@@H](C(=O)O)[C@@H](O)[C@H](O)[C@H](O)CO [D-Glucosaminic acid],+3.5 °C
9,O=C(O)/C=C/C(=O)O [Fumarate],+0.3 °C
10,C=C(CC(=O)O)C(=O)O [Itaconate],-2.2 °C
11,N[C@@H](CCC(=O)O)C(=O)O [L-Glutamic acid],+2.3 °C
12,NC(=O)CC[C@H](N)C(=O)O [L-Glutamine],+2.2 °C
13,CC(O)C(=O)O (stereo not drawn) [Lactate],+0.2 °C
14,O=C(O)CC(O)C(=O)O (stereo not drawn) [Malate],+0.5 °C
15,COC(=O)C(C)=O [Methyl pyruvate],+3.3 °C
16,O=C(O)CC(=O)C(=O)O [Oxaloacetate],+0 °C
17,NCCc1ccccc1 [Phenylethylamine],+3.5 °C
18,CC(=O)C(=O)O [Pyruvate],+0.1 °C
19,O=C(O)CCC(=O)O [Succinate],-0.3 °C
20,O=C(O)CC(CC(=O)O)C(=O)O [Tricarballylate],+0.3 °C
21,O=c1cc[nH]c(=O)[nH]1 [Uracil],+4.2 °C
22,O=C(O)CCC(=O)C(=O)O [α-ketoglutarate],+5.2 °C
23,NCCCC(=O)O [γ-Aminobutyric acid],+4.1 °C

# Target: the molecule itself
# Test: AUC; sedimentation equilibrium, multi-speed, McpK-LBD at 40, 50 and 60 uM with 1 mM alpha-ketoglutarate, 7 °C, dialysis buffer (5 mM Tris, 5 mM PIPES, 5 mM MES, pH 8.0); global fit in SEDPHAT; dimer to monomers
# Settings: not given
row,Molecule,Kd
1,B1,5.9 µM

# Target: the molecule itself
# Test: AUC; sedimentation velocity, McpK-LBD (10-50 uM) with 1 mM alpha-ketoglutarate, 7 °C, 5 mM Tris, 5 mM PIPES, 5 mM MES, pH 8.0; c(s) analysis in SEDFIT
# Settings: not given
row,Molecule,stoichiometry N
1,B1,2

# Target: the molecule itself
# Test: AUC; sedimentation equilibrium, multi-speed, ligand-free McpK-LBD at 40, 50 and 60 uM, 7 °C, dialysis buffer (5 mM Tris, 5 mM PIPES, 5 mM MES, pH 8.0); global fit in SEDPHAT; dimer to monomers
# Settings: not given
row,Molecule,Kd
1,B1,55 µM

# Target: T1, McpK (PA5072) chemoreceptor ligand binding domain
# Test: ITC (two symmetric-site cooperative model; Kd1 =[…], Kd2 =[…]); supported by thermal shift (+[…]°C) and AUC dimer stabilization
# Settings: not given
row,Molecule,Kd
1,O=C(O)CCC(=O)C(=O)O [α-ketoglutarate],80.9 µM
